Assay results from patent US9968577B2, “Treatment and prevention of bone loss using resolvins” (Forsyth Dental Infirmary for Children, priority 2005, dated 2018).

System: P. gingivalis-induced periodontitis
Assay: Ligature + P. gingivalis experimental periodontitis, topical application of Resolvin E1
Assay type: in vivo, New Zealand White rabbits
[1] = rabbit, topical, every other day for 6 weeks, compared with baseline

With `CC[C@@H](O)/C=C/C=C\C[C@@H](O)/C=C/C=C/C=C\[C@@H](O)CCCC(=O)O` [Resolvin E1] the bone loss (rabbit model, topical administration) was “prevents bone loss”, the “soft tissue condition (mandibles, FIG. 2)” value (rabbit, topical resolvin E1 7 μg/μL in ethanol every other day for 6 weeks, starting six weeks after ligature and P. gingivalis, vs control group) was “distinctly healthier than the control group” and the “deposition of bone (bone growth), conclusion” value (rabbit, topical, every other day for 6 weeks) was “assisted in deposition of bone”. For the same compound, the “hard tissue crestal distance measurements (FIG. 4 and FIG. 5)” value (rabbit, topical, every other day for 6 weeks, buccal and lingual, defleshed jaws) was “same results”, the “soft tissue pocket depth measurements (FIG. 3)” value (rabbit, topical, every other day for 6 weeks, buccal and lingual, vs vehicle alone) was “lower” and the “hard-tissue-infrabony pocket depth measurements (FIG. 6)” value [1] was “improvement over baseline”. The “soft tissue pocket depth measurements vs baseline (FIG. 3)” value [1] was “improvement over baseline” and the “tooth mobility (FIG. 7)” value [1] was “improvement over baseline”.
